In US9994535B2, “Desferrithiocin polyether analogues” (University of Florida Research Foundation, Inc., priority 2005, dated 2018):

Legend:
Format in all cases: in vivo
[1] = Tissue and plasma concentrations upon subcutaneous administration to rats; details: rat
Protocol: Tissue Distribution of a Polyether-Substituted (S)-4′-Hydroxydesazadesferrithiocin Analogue [(S)-4′-(HO)-DADFT-PE] Upon Subcutaneous Administration to Rats
A measurement was made assessing (S)-4′-(HO)-DADFT-PE and (S)-4′-(HO)-DADFT tissue and plasma concentrations upon subcutaneous administration at times from 2-8 h post dosing. The rats were given this compound subcutaneously at 300 μmol/kg. The tissue and plasma level were obtained as described in Bergeron et al. J Med Chem. 48:821-831 (2005), the entire contents of which are incorporated herein by reference.

[2] = Iron clearing efficiency in non-iron overloaded, bile duct cannulated rat model; details: for Efficiency (%) (iron clearing efficiency): 300 μmol/kg, 24 hour iron excretion, 2:1 ligand-iron complex
Protocol: Iron Clearing Efficiency of Iron Chelators in a Non-Iron Overloaded, Bile Duct Cannulated Rat Model
Studies were performed in the non-iron overloaded, bile duct cannulated rodent model with the compounds shown below.
Briefly, male Sprague-Dawley rats averaging 450 g were housed in Nalgene plastic metabolic cages during the experimental period and given free access to water. The animals were anesthetized using sodium pentobarbital (55 mg/kg) administered intraperitoneally. The bile duct was cannulated using 22-gauge polyethylene tubing. The cannula was inserted into the duct about 1 cm from the duodenum and tied snugly in place. After threading through the shoulder, the cannula was passed from the rat to the swivel inside a metal torque-transmitting tether, which was attached to a rodent jacket around the animal's chest. The cannula was directed from the rat to a Gilson microfraction collector (Middleton, Wis.) by a fluid swivel mounted above the metabolic cage. Three hour bile samples were continuously collected for a minimum of 24 hours up to 48 hours. However, the efficiency calculations are based on the 24 hour iron excretion. The efficiency of each chelator was calculated on the basis of a 2:1 ligand-iron complex. The efficiencies in the rodent model were calculated by subtracting the iron excretion of control animals from the iron excretion of treated animals. This number was then divided by the theoretical output; the result is expressed as a percentage (Bergeron, R. J., et al., J. Med Chem. 42:95-108 (1999) the entire contents of which are incorporated herein by reference). The urine sample was taken at 24 hours and handled as previously described in Bergeron, R. J., et al., J. Med. Chem. 34:2072-2078 (1991), the entire contents of which are incorporated herein by reference.

[3] = Iron clearing efficiency in iron-overloaded Cebus apella monkey model; details: primates, given either p.o. or s.c.
Protocol: Iron Chelators in a Cebus apella Monkey Model Studies were performed in the iron-overloaded monkey model with the compounds shown below: The protocol used can be found in Bergeron, R. J. et al., “Methoxylation of Desazadesferrithiocin Analogues: Enhanced Iron Clearing Efficiency,” J. Med. Chem. 46:1470-1477 (2003), the contents of which are incorporated herein by reference. Briefly, the monkeys were iron overloaded with iron dextran administered intravenously to result in an iron loading of about 500 mg per kg of body weight. At least 20 half-lives, 60 days, elapsed before the animals were used in experiments evaluating iron chelators. Fecal and urine samples were collected at 24 hour intervals beginning 4 days prior to the administration of an iron chelator and continued for 5 days after the chelator was administered. Iron concentrations in stool and urine were determined by flame atomic absorption spectroscometry. Iron chelator efficiency was calculated by dividing the net iron clearance [total iron excretion (stool plus urine) minus background] by the theoretical iron clearance and multiplying by 100. The theoretical clearance of the iron chelator was generated on the basis of a 2:1 ligand/iron complex.

COCCOCCOCCOc1ccc(C2=N[C@@](C)(C(=O)O)CS2)c(O)c1 [(S)-4′-(HO)-DADFT-PE, (S)-4,5-Dihydro-2-[2-hydroxy-4-[2-[2-(2-methoxyethoxy)ethoxy]ethoxy]phenyl]-4-methyl-4-thiazolecarboxylic Acid]
Tissue distribution (where most is found) ([1]; sc): found in the liver, kidney and pancreas
Brain concentration of administered compound ([1]; sc 300 μmol/kg, 2 h): 0.5 ± 0.9 nmol/g wet wt
Brain concentration of administered compound ([1]; sc 300 μmol/kg, 4 h): 0.0 ± 0.0 nmol/g wet wt
Brain concentration of administered compound ([1]; sc 300 μmol/kg, 6 h): 0.0 ± 0.0 nmol/g wet wt
Brain concentration of administered compound ([1]; sc 300 μmol/kg, 8 h): 0.0 ± 0.0 nmol/g wet wt
Heart concentration of administered compound ([1]; sc 300 μmol/kg, 2 h): 9.2 ± 2.6 nmol/g wet wt
Heart concentration of administered compound ([1]; sc 300 μmol/kg, 4 h): 5.3 ± 1.4 nmol/g wet wt
Heart concentration of administered compound ([1]; sc 300 μmol/kg, 6 h): 0.0 ± 0.0 nmol/g wet wt
Heart concentration of administered compound ([1]; sc 300 μmol/kg, 8 h): 2.0 ± 1.7 nmol/g wet wt
Kidney concentration of administered compound ([1]; sc 300 μmol/kg, kidney, 2 h): 41.1 ± 3.0 nmol/g wet wt
Kidney concentration of administered compound ([1]; sc 300 μmol/kg, kidney, 4 h): 33.7 ± 13.5 nmol/g wet wt
Kidney concentration of administered compound ([1]; sc 300 μmol/kg, kidney, 6 h): 13.7 ± 2.1 nmol/g wet wt
Kidney concentration of administered compound ([1]; sc 300 μmol/kg, kidney, 8 h): 7.4 ± 2.1 nmol/g wet wt
Liver concentration of administered compound ([1]; sc 300 μmol/kg, 2 h): 131.6 ± 32.2 nmol/g wet wt
Liver concentration of administered compound ([1]; sc 300 μmol/kg, 4 h): 66.9 ± 12.4 nmol/g wet wt
Liver concentration of administered compound ([1]; sc 300 μmol/kg, 6 h): 34.3 ± 1.5 nmol/g wet wt
Liver concentration of administered compound ([1]; sc 300 μmol/kg, 8 h): 25.4 ± 4.6 nmol/g wet wt
Pancreas concentration of administered compound ([1]; sc 300 μmol/kg, 2 h): 29.6 ± 24.8 nmol/g wet wt
Pancreas concentration of administered compound ([1]; sc 300 μmol/kg, 4 h): 12.6 ± 5.2 nmol/g wet wt
Pancreas concentration of administered compound ([1]; sc 300 μmol/kg, 6 h): 4.6 ± 1.6 nmol/g wet wt
Pancreas concentration of administered compound ([1]; sc 300 μmol/kg, 8 h): 2.7 ± 2.6 nmol/g wet wt
concentration at 2 h ([1]; sc 300 μmol/kg, plasma, 2 h, read-out: Plasma concentration of administered compound): 16.2 ± 4.2 µM
concentration at 4 h ([1]; sc 300 μmol/kg, plasma, 4 h, read-out: Plasma concentration of administered compound): 5.3 ± 2.6 µM
concentration at 6 h ([1]; sc 300 μmol/kg, plasma, 6 h, read-out: Plasma concentration of administered compound): 1 ± 1 µM
concentration at 8 h ([1]; sc 300 μmol/kg, plasma, 8 h, read-out: Plasma concentration of administered compound): 0 nM
Metabolism back to (S)-4-(HO)DADFT ([1]; sc, any tissue): very little metabolism
Kidney level compared with (S)-4-(HO)-DADFT ([1]; sc, kidney, any time point): much less of the PE in the kidney
Efficiency (%) (iron clearing efficiency) ([2]; p.o.): 6.6 ± 1.9%
Efficiency (%) (iron clearing efficiency) ([2]; s.c.): 8.7 ± 2.8%
Iron clearing efficiency compared with parent drug (S)-4-(HO)-DADFT ([2]; same micromole per kilogram dose): work better than the parent drug
Iron clearing efficiency compared with (S)-4′-(HO)-DADFT [3]: at least as efficient as (S)-4′-(HO)-DADFT
